{
  "source": "patent US9034891B2",
  "about": "“Bicyclic heterocyclic spiro compounds” (ISRAEL INSTITUTE FOR BIOLOGICAL RESEARCH, priority 2009, dated 2015)",
  "key": {"PC12 cells": {"system": "PC12 cells", "experiment": "MTT assay, β-amyloid 25-35 toxicity in PC12 cells", "assay_type": "cell-based, rat", "settings": "5 μM β-amyloid 25-35, 6 hours; 10 μM-1 nM", "text": "The 3-(4,5-dimethylthiazol-2-yl)-2,5-diphenyl-tetrazolium bromide (MTT) assay measures changes that occur within the cells, involving mitochondria activation, indicative of a process that eventually leads to cell death (Fagarasan et al., Mol. Psychiat. 1996, 1:398-403). This assay is a specific, early indicator of the mechanism of β-amyloid-mediated cell death (Shearman et al., PNAS USA 1994, 91:1470-74). This assay was used to evaluate compounds of formulae I and II. Rat pheochromocytoma (PC12) cells were plated in 96 well plate at a density of 10,000 cells/well, and maintained in Dulbecco's modified Eagle medium (Gibco, Cat. 21969) supplemented with 5% fetal bovine serum (Biological Industries, Cat. 04-121-1A), 10% heat-inactivated horse serum (Gibco Cat. 26050), L-Glutamine 200 mM (Biological Industries, Cat. 03-020-1C), Penicillin 10000 U/ml (Biological Industries, Cat 03-031-1C), and Amphotericin B 50 mg/ml (Biological Industries, Cat. 01-029-1C). The next day the medium was refreshed with serum free media and cells were treated with 5 μM β-amyloid 25-35 (H-1192.0001, Bachem) in the presence or absence of the test compound. Compounds were tested for 6 hours, respectively, at final concentrations ranging between 0.1 nM to 100 μM. 3-Indolepropionic acid (3-IPA, Cat. 220027, Sigma Aldrich) served as a reference antioxidant."}, "M1 mAChR [1]": {"biological_target": "T1, M1 mAChR (Homo sapiens, UniProt P11229)", "T1 sequence (P11229 1-460)": "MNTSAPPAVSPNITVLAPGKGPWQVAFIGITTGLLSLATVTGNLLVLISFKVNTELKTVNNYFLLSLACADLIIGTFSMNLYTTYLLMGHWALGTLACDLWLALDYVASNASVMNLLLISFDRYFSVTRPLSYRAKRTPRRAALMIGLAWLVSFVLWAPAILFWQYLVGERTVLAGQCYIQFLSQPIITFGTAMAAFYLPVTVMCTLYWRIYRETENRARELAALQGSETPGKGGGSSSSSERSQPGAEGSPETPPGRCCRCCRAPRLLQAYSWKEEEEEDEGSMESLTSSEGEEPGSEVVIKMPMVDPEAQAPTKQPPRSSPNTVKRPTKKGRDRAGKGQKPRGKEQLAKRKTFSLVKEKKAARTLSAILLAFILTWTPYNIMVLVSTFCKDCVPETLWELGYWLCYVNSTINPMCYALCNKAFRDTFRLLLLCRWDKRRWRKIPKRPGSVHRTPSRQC", "experiment": "Intracellular Ca2+ mobilization (Fluo-4 NW) in cells stably transfected with M1 mAChR", "assay_type": "cell-based", "parameters": "expressed in transfected cells", "settings": "100 μM; mobilization of intracellular Ca ions", "text": "On the day of experiment, cells were fully confluent.\nTo evaluate selectivity for a subtype of mAChR, in particular the M1 mAChR vs. M3 and MS mAChR, the assays were calibrated using ligands that have a combined activity, e.g. M1 agonistic and M3 antagonistic or M1 agonistic and MS antagonistic profiles, respectively. This can eliminate effects due to different receptor reserves in cell-based assays."}, "M1 mAChR [2]": {"biological_target": "T1, M1 mAChR", "experiment": "αAPPs secretion in CHO cells double transfected with human APP695 and human M1 mAChR", "assay_type": "cell-based", "procedure": "(§1) α-APPs Secretion studies following incubation with the tested compounds were performed as described in Haring, et al. J. Neurochem., 1998, 71:2094-103. […] A day later, cells were washed twice with serum free media, and treated with the test compound at various concentrations ranging from 0.1 nM to 100 μM. […] After 1 hour the conditioned medium was collected to cold Eppendorf tubes, which included a protease inhibitor cocktail (0.1 mM phenylmethylsulphonyl fluoride (PMSF); 5 μg/ml leupeptin; 5 μg/ml pepstatin and 5 units/ml aprotinin) for determining αAPPs release. The protein content of each sample was concentrated using Centricon tubes (Amicon, Beverly, Mass.). […] CHO cells double transfected with human APP695 and M1 mAChR APPs bands were probed using anti-amyloid beta protein (1:1000, monoclonal 6E10 antibody, MAB1560, Chemicon) and peroxidase-linked rabbit anti mouse IgG (1:5,000; Jackson Immuno Research, PA). PC12 cells stably transfected with M1 mAChR APPs bands were probed using the anti-Alzheimer precursor protein A4 (1:4,000; monoclonal 22C11 antibody, Boehringer Mannheim) and the peroxidase-linked rabbit anti mouse IgG (1:20,000; Jackson Immuno Research, PA). Following extensive washout, the membranes were treated with Western Lightning Chemiluminescence Reagent Plus (PerkinElmer Life Sciences, MA) followed by exposure to SuperRX film (Fuji Medical X-ray film, Tokyo, Japan). Quantitative determination of the total APPs bands was performed by Scion Image program (NIH, Bethesda, USA). Samples of control and CCh were assayed in parallel and thus enabled compilation of data from separate experiments."}, "rat M1 mAChR": {"biological_target": "T2, rat M1 mAChR (Rattus norvegicus, UniProt P08482)", "T2 construct": "expressed in transfected cells; host or cells: rat pheochromocytoma PC12 cells", "T2 sequence (P08482 whole entry)": "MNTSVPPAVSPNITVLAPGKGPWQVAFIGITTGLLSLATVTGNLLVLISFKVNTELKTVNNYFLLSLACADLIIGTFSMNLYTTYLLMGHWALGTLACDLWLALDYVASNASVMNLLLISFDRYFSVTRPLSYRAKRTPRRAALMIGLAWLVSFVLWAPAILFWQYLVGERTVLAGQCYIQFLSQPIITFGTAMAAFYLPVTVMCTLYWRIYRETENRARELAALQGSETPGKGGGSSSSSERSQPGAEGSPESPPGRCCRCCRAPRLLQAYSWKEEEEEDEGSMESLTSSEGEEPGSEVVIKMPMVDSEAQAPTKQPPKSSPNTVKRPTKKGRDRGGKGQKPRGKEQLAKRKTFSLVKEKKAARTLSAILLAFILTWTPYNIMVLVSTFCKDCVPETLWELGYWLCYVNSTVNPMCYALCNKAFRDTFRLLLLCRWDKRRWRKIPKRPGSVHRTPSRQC", "experiment": "αAPPs secretion in PC12 cells stably transfected with rat M1 mAChR", "assay_type": "cell-based", "settings": "0.1 nM to 1 μM, not observed in untransfected PC12", "procedure": "as §1, with “Following extensive washout, the membranes were treated with Western Lightning Chemiluminescence Reagent Plus (PerkinElmer Life Sciences, MA) followed by exposure to SuperRX film (Fuji Medical X-ray film, Tokyo, Japan).” left out, “Samples of control and CCh were assayed in parallel and thus enabled compilation of data from separate experiments.” left out"}, "M1 mAChR [3]": {"biological_target": "T1, M1 mAChR"}},
  "data": [
    {"smiles": "O=C(O)CCc1c[nH]c2ccccc12", "note": "[3-IPA, 3-Indolepropionic acid, reference compound]", "values": [
      {"measurement": "protection against toxicity induced by Aβ25-35 (MTT)", "setting": "PC12 cells", "result": "protected cells"}
    ]},
    {"smiles": "CC1OC2(CCN(C)CC2)CN1C(=O)CCc1c[nH]c2ccccc12", "note": "(racemic) [AF711, 1-(2,8-dimethyl-1-oxa-3,8-diazaspiro[4.5]dec-3-yl)-3-(1H-indol-3-yl)-propan-1-one]", "values": [
      {"measurement": "protection against toxicity induced by Aβ25-35 (MTT)", "setting": "PC12 cells", "result": "protected cells"},
      {"measurement": "M1 agonist at 100 μM vs. carbachol (full muscarinic agonist, 100%)", "setting": "M1 mAChR [1]", "result": 19, "unit": "%"}
    ]},
    {"smiles": "CC1SC2(CCN(C)CC2)CN1C(=O)CCc1c[nH]c2ccccc12", "note": "(racemic) [AF710, 1-(2,8-dimethyl-1-thia-3,8-diazaspiro[4.5]dec-3-yl)-3-(1H-indol-3-yl) propan-1-one]", "values": [
      {"measurement": "protection against toxicity induced by Aβ25-35 (MTT)", "setting": "PC12 cells", "result": "protected cells"},
      {"measurement": "release of αAPPs", "setting": "M1 mAChR [2]; CHO cells, 0.1 nM to 1 μM", "result": "enhanced the release of αAPPs"},
      {"measurement": "maximal αAPPs secretion in comparison to untreated control cells", "setting": "M1 mAChR [2]; doubly-transfected CHO cells, AF710B at 0.01 μM, AF710 at 0.1 μM, AF710A at 1 μM", "result": 175, "unit": "%"},
      {"measurement": "release of αAPPs", "setting": "rat M1 mAChR", "result": "enhanced the release of αAPPs"},
      {"measurement": "effect of brucine pre-incubation on elevation of intracellular calcium ions", "setting": "M1 mAChR [3]", "result": "no such effect"},
      {"measurement": "M1 agonist at 100 μM vs. carbachol (full muscarinic agonist, 100%)", "setting": "M1 mAChR [1]", "result": 40, "unit": "%"}
    ]}
  ]
}
